Data published in US20240010639A1, “TRIAZINE DIONE DERIVATIVE, PREPARATION METHOD THEREFOR AND APPLICATION THEREOF IN MEDICINE” (Jiangsu Hengrui Pharmaceuticals Co., Ltd., priority 2020, published 2024).
Read-outs that look alike come from different tables or passages of the source.

Columns and labels:
[1] = Pharmacokinetic evaluation in beagles; type: in vivo; settings: for AUC: read-out: Area under curve AUC; for half-life: read-out: Half-life T1/2 (converted); for Cmax: read-out: Plasma concentration Cmax; for MRT: read-out: Residence time MRT
Experimental: With beagles as test animals, the plasma concentrations of the test compounds were measured by LC/MS/MS at different time points after intragastric administration and intravenous injection. The pharmacokinetic performance of the compound disclosed herein was studied in beagles and its pharmacokinetic profile was evaluated.
Pharmacokinetics of the compound of Example 16 in beagles: 8 beagles, an equal number of males and females, divided into 2 groups of 4, provided by Shanghai Medicilon Inc. Pharmacokinetics of compound MYK-461 in beagles: 6 beagles, male, divided into 2 groups of 3, provided by Shanghai Medicilon Inc.
A certain amount of the compound of Example 16 was measured out, and 5% DMSO, 30% PG, 30% PEG400 and 35% normal saline were added to prepare a clear solution.
A certain amount of compound MYK-461 was measured out, and 5% DMSO, 20% PG, 20% PEG400 and 55% normal saline were added to prepare a clear solution.
Beagles were fasted overnight and then given compounds by intragastric administration and intravenous injection at doses of 2 mg/kg and 0.5 mg/kg, respectively, and at volumes of 5 mL/kg and 2 mL/kg, respectively.
1.0-mL blood samples were collected from the jugular veins or forelimb veins of the animals in the intragastric administration group before administration and 0.25 h, 0.5 h, 1.0 h, 2.0 h, 4.0 h, 6.0 h, 8.0 h, 12.0 h and 24.0 h after administration, placed into EDTA-K2 anticoagulant tubes, and centrifuged at 10,000 rpm for 5 min (4° C.), and plasma was isolated within 1 h and stored at −80° C. before analysis. The blood collection to centrifugation process was performed under ice bath conditions. Three hours after administration, feeding was resumed.
Blood samples were collected from the animals in the intravenous injection group before administration and 5 min, 0.25 h, 0.5 h, 1.0 h, 2.0 h, 4.0 h, 8.0 h, 12.0 h and 24.0 h after administration and processed as in the intragastric administration group.
Determination of plasma concentrations in beagles after intragastric administration and intravenous injection of different concentrations of test compounds: 30 μL of beagle plasma at each time point post-dose was mixed with an internal standard solution (internal standard for the compound of Example 16: 100 ng/mL warfarin; internal standard for compound MYK-461: 100 ng/mL tolbutamide) and 300 μL of methanol; the mixture was vortexed for 1 min and centrifuged at 18,000 g for 7 min, and 200 μL of the supernatant was transferred to a 96-well plate; 1 μL of the supernatant was taken for LC/MS/MS analysis.

[2] = Toxicokinetic evaluation of 14-day repeated intragastric administration to SD rats; type: in vivo
Experimental: With SD rats as test animals, the plasma concentrations of the test compounds and the concentrations of the original forms of the compounds in the administration solutions were measured by LC/MS/MS at different time points after intragastric administration. The toxicokinetic performance of the compound disclosed herein was studied in SD rats and its toxicokinetic profile was evaluated.
24 SD rats, an equal number of males and females, evenly divided into 6 groups of 4, an equal number of males and females in each group, provided by Vital River Laboratory Animal Technology Co., Ltd.
A certain amount of the compound of Example 16 was measured out, and 15% PEG400 and 85% (10% TPGS+1% HPMC K100LV) were added to prepare a pale yellow homogenous suspension.
A certain amount of compound MYK-461 was measured out, and 0.5% MC was added to prepare a colorless clear solution.
The compound of Example 16 was intragastrically administered at doses of 5 mg/kg, 15 mg/kg and 30 mg/kg, at a volume of 10 mL/kg.
Compound MYK-461 was administered at doses of 0.5 mg/kg, 1.5 mg/kg and 3 mg/kg, at a volume of 10 mL/kg.
0.2-mL blood samples were collected from the orbit 0.5 h, 1.0 h, 2.0 h, 4.0 h, 8.0 h and 24.0 h after administration on day 1, and before administration and 0.5 h, 1.0 h, 2.0 h, 4.0 h, 8.0 hi, 24.0 h after administration on day 7 and day 14, placed into EDTA-K2 anticoagulation tubes, and centrifuged at 10,000 rpm for 1 min (4° C.), and plasma was isolated within 1 h and stored at −20° C. before analysis. The blood collection to centrifugation process was performed under ice bath conditions. Two hours after administration, feeding was resumed.
Determination of plasma concentrations in SD rats after intragastric administration of different concentrations of test compounds: 20 μL of SD rat plasma at each time point post-dose was mixed with 50 μL of an internal standard solution (internal standard for the compound of Example 16: 100 ng/mL verapamil; internal standard for compound MYK-461: 100 ng(mL camptothecin) and 200 μL of acetonitrile; the mixture was vortexed for 5 min and centrifuged at 3700 rpm for 10 min, and 1 μL of the supernatant was taken for LC/MS/MS analysis.

[3] = both (Example 16), male (MYK-461), beagle, dog, plasma, intravenous injection, 0.5 mg/kg
[4] = both (Example 16), male (MYK-461), beagle, dog, plasma, po, intragastric administration, 2 mg/kg
[5] = intravenous injection, 0.5 mg/kg

T1/2 comparison (in words) [1]: significantly shorter T1/2 | absorption profile (in words) [1]: good absorption profile | AUC [1, 3]: 716 ng·h/mL | half-life [1, 3]: 5.6 h | Cmax [1, 3]: 1080 ng/mL | MRT [1, 3]: 7.5 h | Vd/F ([1]; both (Example 16), male (MYK-461), beagle, dog, plasma, po, intragastric administration, 2 mg/kg, read-out: Apparent volume of distribution Vz/F): 6.05 L/kg | AUC [1, 4]: 3100 ng·h/mL | CL/F ([1]; both (Example 16), male (MYK-461), beagle, dog, plasma, po, intragastric administration, 2 mg/kg, read-out: Clearance CL/F): 9.26 mL/min/kg | half-life [1, 4]: 7.5 h | Cmax [1, 4]: 1540 ng/mL | MRT [1, 4]: 9.5 h | Apparent volume of distribution Vz/F [1, 5]: 5.022 L/kg | Clearance CL/F [1, 5]: 10.4 mL/min/kg
SMILES: Cc1ccc(F)c([C@H](C)Nc2nc(=O)n(C3CCOCC3)c(=O)[nH]2)c1 [Example 16, (S)-6-((1-(2-Fluoro-5-methylphenyl)ethyl)amino)-3-(tetrahydro-2H-pyran-4-yl)-1,3,5-triazine-2,4(1H,3H)-dione]
accumulation after 14 days of repeated intragastric administration (in words) [2]: did not show significant accumulation | Vd/F at 1 day ([2]; both sexes, SD, rat, plasma, po, 5 mg/kg, repeated intragastric 5 mg/kg, Day 1, read-out: Apparent volume of distribution Vz/F): 1.27 L/kg | AUC ([2]; both sexes, SD, rat, plasma, po, 5 mg/kg, repeated intragastric 5 mg/kg, Day 1, read-out: Area under curve AUC): 30000 ng·h/mL | CL/F at 1 day ([2]; both sexes, SD, rat, plasma, po, 5 mg/kg, repeated intragastric 5 mg/kg, Day 1, read-out: Clearance CL/F): 3.06 mL/min/kg | half-life at 1 day ([2]; both sexes, SD, rat, plasma, po, 5 mg/kg, repeated intragastric 5 mg/kg, Day 1, read-out: Half-life T1/2 (converted)): 4.8 h | Cmax at 1 day ([2]; both sexes, SD, rat, plasma, po, 5 mg/kg, repeated intragastric 5 mg/kg, Day 1, read-out: Plasma concentration Cmax): 5740 ng/mL | MRT at 1 day ([2]; both sexes, SD, rat, plasma, po, 5 mg/kg, repeated intragastric 5 mg/kg, Day 1, read-out: Residence time MRT): 5 h | Vd/F at 7 day ([2]; both sexes, SD, rat, plasma, po, 5 mg/kg, repeated intragastric 5 mg/kg, Day 7, read-out: Apparent volume of distribution Vz/F): 1.28 L/kg | AUC at 7 day ([2]; both sexes, SD, rat, plasma, po, 5 mg/kg, repeated intragastric 5 mg/kg, Day 7, read-out: Area under curve AUC): 28100 ng·h/mL | CL/F at 7 day ([2]; both sexes, SD, rat, plasma, po, 5 mg/kg, repeated intragastric 5 mg/kg, Day 7, read-out: Clearance CL/F): 2.99 mL/min/kg | half-life at 7 day ([2]; both sexes, SD, rat, plasma, po, 5 mg/kg, repeated intragastric 5 mg/kg, Day 7, read-out: Half-life T1/2 (converted)): 4.9 h | Cmax at 7 day ([2]; both sexes, SD, rat, plasma, po, 5 mg/kg, repeated intragastric 5 mg/kg, Day 7, read-out: Plasma concentration Cmax): 4470 ng/mL | MRT at 7 day ([2]; both sexes, SD, rat, plasma, po, 5 mg/kg, repeated intragastric 5 mg/kg, Day 7, read-out: Residence time MRT): 6 h | Vd/F at 14 day ([2]; both sexes, SD, rat, plasma, po, 5 mg/kg, repeated intragastric 5 mg/kg, Day 14, read-out: Apparent volume of distribution Vz/F): 1.24 L/kg | AUC at 14 day ([2]; both sexes, SD, rat, plasma, po, 5 mg/kg, repeated intragastric 5 mg/kg, Day 14, read-out: Area under curve AUC): 29800 ng·h/mL | CL/F at 14 day ([2]; both sexes, SD, rat, plasma, po, 5 mg/kg, repeated intragastric 5 mg/kg, Day 14, read-out: Clearance CL/F): 2.8 mL/min/kg | half-life at 14 day ([2]; both sexes, SD, rat, plasma, po, 5 mg/kg, repeated intragastric 5 mg/kg, Day 14, read-out: Half-life T1/2 (converted)): 5.1 h | Cmax at 14 day ([2]; both sexes, SD, rat, plasma, po, 5 mg/kg, repeated intragastric 5 mg/kg, Day 14, read-out: Plasma concentration Cmax): 4860 ng/mL | MRT at 14 day ([2]; both sexes, SD, rat, plasma, po, 5 mg/kg, repeated intragastric 5 mg/kg, Day 14, read-out: Residence time MRT): 6.2 h | Vd/F ([2]; both sexes, SD, rat, plasma, po, 15 mg/kg, repeated intragastric 15 mg/kg, Day 1, read-out: Apparent volume of distribution Vz/F): 1.37 L/kg
